Measurements from the Kinase Knowledgebase extract (Sharma et al. 2016).

Columns and labels:
[1] = molecular target: MAPK14 (human) (UniProt Q16539); experiment: Inhibition of IL-6 Production in Whole Blood Cells
[2] = molecular target: MAPK14 (human) (UniProt Q16539); experiment: Inhibition of TNF-alpha Production in LPS Stimulated PBMC
[3] = molecular target: MAPK14 (human) (UniProt Q16539); experiment: Inhibition of p38 Kinase Activity
[4] = molecular target: MAPK14 (human) (UniProt Q16539); experiment: Inhibition of TNF-alpha Production in LPS Stimulated Whole Blood Cells
[5] = molecular target: MAPK14 (human) (UniProt Q16539); experiment: Inhibition of IL-1 Production in LPS Whole Blood Cells
[6] = molecular target: MAPK14 (human) (UniProt Q16539); experiment: Inhibition of IL-1 Production in LPS Stimulated PBMC

Chain of MAPK14 (human) (Q16539 whole entry, looked up): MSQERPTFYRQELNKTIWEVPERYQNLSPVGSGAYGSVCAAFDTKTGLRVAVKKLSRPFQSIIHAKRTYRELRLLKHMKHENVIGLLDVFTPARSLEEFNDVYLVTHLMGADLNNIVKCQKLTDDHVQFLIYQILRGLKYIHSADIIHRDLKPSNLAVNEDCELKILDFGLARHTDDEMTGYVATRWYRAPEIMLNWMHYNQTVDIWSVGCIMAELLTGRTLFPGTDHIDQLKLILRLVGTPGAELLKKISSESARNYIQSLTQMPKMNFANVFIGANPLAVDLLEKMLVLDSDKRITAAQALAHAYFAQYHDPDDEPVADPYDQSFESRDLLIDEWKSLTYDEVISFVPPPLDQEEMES

Row | Compound | IC50 [1] | IC50 [2] | IC50 [3] | IC50 [4] | IC50 [5] | IC50 [6]
1 | Cc1ccccc1-c1nc(N(C(N)=O)c2c(Cl)cccc2Cl)ccc1CO | 250 nM | 140 nM | 56 nM | 64 nM | 420 nM | 21 nM
2 | Cc1cc(F)ccc1-c1nc(N(C(N)=O)c2c(F)cccc2F)ccc1CO | 75 nM | 10 nM | 27 nM | 90 nM | 57 nM | 27 nM
3 | Cc1cc(F)ccc1-c1nc(N(C(N)=O)c2c(Cl)cccc2Cl)ccc1CO | 180 nM | 50 nM | 2 nM | 55 nM | 118 nM | 20 nM
